The source of these data is publication PMC2233662 (The Journal of General Physiology, 2001).

For orientation: EC50 means the midpoint of the concentration-response curve.

The target in this test is r-InsP3R-3 (recombinant rat type 3 InsP3R) (Rattus norvegicus, UniProt Q63269). The test is described as follows: single-channel patch clamp of outer nuclear membrane of isolated oocyte nuclei. Type of test: cell-based.
Sequence of r-InsP3R-3 (recombinant rat type 3 InsP3R) (Q63269 whole entry): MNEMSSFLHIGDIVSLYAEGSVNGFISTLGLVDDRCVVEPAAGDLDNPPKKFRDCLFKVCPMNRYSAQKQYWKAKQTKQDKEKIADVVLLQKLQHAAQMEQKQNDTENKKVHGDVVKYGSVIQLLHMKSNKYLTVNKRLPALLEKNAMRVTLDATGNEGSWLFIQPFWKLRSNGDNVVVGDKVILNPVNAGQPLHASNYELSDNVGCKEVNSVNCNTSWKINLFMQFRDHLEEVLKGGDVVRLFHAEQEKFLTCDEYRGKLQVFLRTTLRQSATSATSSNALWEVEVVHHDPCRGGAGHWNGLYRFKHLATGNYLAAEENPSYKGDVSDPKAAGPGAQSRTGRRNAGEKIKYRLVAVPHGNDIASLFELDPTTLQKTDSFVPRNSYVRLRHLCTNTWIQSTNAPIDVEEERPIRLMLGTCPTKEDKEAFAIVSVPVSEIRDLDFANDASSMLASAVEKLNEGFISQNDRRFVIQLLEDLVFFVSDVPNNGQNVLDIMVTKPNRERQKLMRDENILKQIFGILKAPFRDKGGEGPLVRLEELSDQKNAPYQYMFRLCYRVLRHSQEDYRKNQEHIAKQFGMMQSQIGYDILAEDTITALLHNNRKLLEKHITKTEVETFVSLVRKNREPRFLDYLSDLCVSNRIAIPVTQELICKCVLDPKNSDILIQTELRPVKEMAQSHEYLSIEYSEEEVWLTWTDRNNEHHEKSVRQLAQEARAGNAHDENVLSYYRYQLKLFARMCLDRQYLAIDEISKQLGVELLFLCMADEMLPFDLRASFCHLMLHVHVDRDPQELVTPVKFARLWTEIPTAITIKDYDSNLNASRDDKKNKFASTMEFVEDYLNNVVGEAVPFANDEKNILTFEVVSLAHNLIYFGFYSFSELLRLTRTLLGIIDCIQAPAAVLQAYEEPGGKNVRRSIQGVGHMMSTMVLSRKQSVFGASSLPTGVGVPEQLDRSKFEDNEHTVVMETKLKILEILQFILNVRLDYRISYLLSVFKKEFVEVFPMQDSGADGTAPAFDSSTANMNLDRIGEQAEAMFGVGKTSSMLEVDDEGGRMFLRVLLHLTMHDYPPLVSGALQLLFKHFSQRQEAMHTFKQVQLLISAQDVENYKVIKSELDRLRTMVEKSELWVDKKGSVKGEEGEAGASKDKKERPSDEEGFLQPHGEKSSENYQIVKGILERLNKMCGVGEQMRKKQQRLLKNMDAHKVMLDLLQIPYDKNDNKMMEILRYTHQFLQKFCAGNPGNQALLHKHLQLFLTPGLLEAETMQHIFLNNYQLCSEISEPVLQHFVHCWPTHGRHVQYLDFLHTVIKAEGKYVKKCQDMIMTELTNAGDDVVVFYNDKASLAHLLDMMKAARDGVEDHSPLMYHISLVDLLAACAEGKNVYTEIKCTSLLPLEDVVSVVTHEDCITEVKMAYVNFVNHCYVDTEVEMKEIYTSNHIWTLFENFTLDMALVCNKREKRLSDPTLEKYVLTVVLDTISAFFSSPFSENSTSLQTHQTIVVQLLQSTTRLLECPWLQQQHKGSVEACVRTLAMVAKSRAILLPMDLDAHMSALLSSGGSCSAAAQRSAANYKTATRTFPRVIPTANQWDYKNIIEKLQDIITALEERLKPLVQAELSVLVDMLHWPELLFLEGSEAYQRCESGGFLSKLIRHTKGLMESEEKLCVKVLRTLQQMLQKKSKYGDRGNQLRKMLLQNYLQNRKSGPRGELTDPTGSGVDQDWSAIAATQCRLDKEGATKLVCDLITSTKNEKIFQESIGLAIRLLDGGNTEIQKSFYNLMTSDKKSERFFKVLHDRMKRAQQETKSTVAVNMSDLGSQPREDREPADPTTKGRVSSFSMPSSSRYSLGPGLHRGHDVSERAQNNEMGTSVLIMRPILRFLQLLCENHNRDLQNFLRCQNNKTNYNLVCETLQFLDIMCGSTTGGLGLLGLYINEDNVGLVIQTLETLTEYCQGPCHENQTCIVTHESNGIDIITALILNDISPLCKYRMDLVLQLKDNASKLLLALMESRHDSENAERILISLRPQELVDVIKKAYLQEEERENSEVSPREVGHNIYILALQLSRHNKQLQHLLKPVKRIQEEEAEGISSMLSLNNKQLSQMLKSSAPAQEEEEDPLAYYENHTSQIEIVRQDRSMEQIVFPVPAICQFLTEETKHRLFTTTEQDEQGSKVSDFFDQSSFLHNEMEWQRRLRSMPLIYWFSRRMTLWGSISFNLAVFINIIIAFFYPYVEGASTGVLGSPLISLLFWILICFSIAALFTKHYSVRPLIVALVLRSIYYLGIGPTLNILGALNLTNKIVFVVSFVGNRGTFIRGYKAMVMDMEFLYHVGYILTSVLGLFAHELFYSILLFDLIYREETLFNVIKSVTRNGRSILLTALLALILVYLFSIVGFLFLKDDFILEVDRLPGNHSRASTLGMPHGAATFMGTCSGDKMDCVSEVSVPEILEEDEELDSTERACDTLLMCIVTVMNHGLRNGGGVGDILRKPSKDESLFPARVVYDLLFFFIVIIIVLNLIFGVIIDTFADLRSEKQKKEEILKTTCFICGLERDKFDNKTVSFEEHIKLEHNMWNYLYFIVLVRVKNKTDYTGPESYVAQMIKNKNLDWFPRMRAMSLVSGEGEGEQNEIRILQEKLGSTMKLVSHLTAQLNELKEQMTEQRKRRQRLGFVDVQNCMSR

As to `O=P(O)(O)O[C@@H]1[C@H](O)[C@H](O)[C@@H](OP(=O)(O)O)[C@H](OP(=O)(O)O)[C@H]1O` [InsP3], the concentration giving a half-maximal response (EC50) came to 55 ± 6 nM.
